Reference: patent publication US20230009626A1 (ICHNOS SCIENCES S.A., priority 2018, published 2023)

Target: HPK1 (MAP4K1) (Homo sapiens, UniProt Q92918)
Assay: FRET Assay for HPK1 (MAP4K1): one step binding assay, displacement of labeled tracer
Settings: for inhibition at 1 µM: 1 μM compound; for inhibition at 1 µM / inhibition at 10 µM: FRET ratio 665/620, percent of control; for inhibition at 10 µM: 10 μM compound; for IC50: dose response curve, nonlinear regression
Procedure, shortened: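 TR-FRET tracer-displacement binding assay. GST-tagged HPK1 (10 nM) and Eu-anti-GST antibody (4 nM) were pre-incubated with compound on ice for 15 min in 50 mM HEPES pH 7.5, 10 mM MgCl2, 1 mM EGTA, 0.01% Brij-35 (3% DMSO final). Kinase Tracer 222 (20 nM) was then added for 1 h at room temperature. IC50 came from nonlinear regression of percent of control; percent inhibition was also given at 1.0 and 10.0 μM.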

HPK1 (MAP4K1), sequence (Q92918 whole entry): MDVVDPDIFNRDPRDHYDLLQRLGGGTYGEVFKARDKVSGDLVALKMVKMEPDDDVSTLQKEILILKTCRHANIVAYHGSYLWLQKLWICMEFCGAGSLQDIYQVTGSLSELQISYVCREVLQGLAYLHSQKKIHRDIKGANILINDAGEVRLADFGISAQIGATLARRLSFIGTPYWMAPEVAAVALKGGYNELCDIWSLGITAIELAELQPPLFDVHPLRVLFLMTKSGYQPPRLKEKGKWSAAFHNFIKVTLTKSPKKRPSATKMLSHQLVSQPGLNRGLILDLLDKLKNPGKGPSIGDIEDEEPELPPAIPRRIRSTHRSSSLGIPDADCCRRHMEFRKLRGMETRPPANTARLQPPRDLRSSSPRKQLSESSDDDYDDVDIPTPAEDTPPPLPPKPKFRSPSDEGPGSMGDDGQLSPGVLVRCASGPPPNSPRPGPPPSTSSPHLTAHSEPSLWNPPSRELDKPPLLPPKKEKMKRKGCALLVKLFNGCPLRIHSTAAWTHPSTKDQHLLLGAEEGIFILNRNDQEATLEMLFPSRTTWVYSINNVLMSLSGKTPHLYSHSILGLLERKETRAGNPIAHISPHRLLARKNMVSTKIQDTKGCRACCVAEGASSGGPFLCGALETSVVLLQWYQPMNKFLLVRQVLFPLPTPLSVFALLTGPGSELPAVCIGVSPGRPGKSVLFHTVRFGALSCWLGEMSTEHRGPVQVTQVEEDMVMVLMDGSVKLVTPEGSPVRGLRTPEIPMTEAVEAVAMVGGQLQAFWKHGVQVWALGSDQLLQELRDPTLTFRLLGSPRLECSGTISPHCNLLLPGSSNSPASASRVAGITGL

SMILES	inhibition at 1 µM [%]	inhibition at 10 µM [%]	IC50 [nM]
C/C(Nc1cnn(C)c1)=C1/C(=O)Nc2cnc(-c3c(C)noc3C)cc21 [Example 55, (Z)-5-(3,5dimethylisoxazol-4-yl)-3-(1-((1-methyl-1H-pyrazol-4-yl)amino)ethylidene)-1H-pyrrolo[2,3-c]pyridin-2(3H)-one]	78	90	50 to 100
COc1cccc(F)c1-c1cc2c(cn1)NC(=O)/C2=C(/C)Nc1ccc(N(C)C)nc1 [Example 117, (Z)-3-(1-((6-(Dimethylamino)pyridin-3-yl)amino)ethylidene)-5-(2-fluoro-6-methoxyphenyl)-1H-pyrrolo[2,3-c]pyridin-2(3H)-one]	54.8	56.4	–
CNC(=O)c1cc(N/C(C)=C2\C(=O)Nc3cnc(-c4cnccc4C)cc32)nn1C [Example 75, (Z)-N,1-Dimethyl-3-((1-(5-(4-methylpyridin-3-yl)-2-oxo-1H-pyrrolo[2,3-c]pyridin-3(2H)-ylidene)ethyl)amino)-1H-pyrazole-5-carboxamide]	71	74	< 50
COc1cccc(F)c1-c1ccc2c(c1)/C(=C(\C)Nc1ccc(N3CCN(C)CC3)cc1)C(=O)N2 [Example 2, (Z)-5-(2-Fluoro-6-methoxyphenyl)-3-(1-((4-(4-methylpiperazin-1-yl)phenyl)amino)ethylidene)indolin-2-one]	88.6	82.5	< 50
C/C(Nc1ccn(CC(C)(C)O)n1)=C1/C(=O)Nc2cnc(-c3c(C)cccc3F)cc21 [Example 141, (Z)-5-(2-Fluoro-6-methylphenyl)-3-(1-((1-(2-hydroxy-2-methylpropyl)-1H-pyrazol-3-yl)amino)ethylidene)-1H-pyrrolo[2,3-c]pyridin-2(3H)-one]	80	85.9	50 to 100
COc1cccc(F)c1-c1ccc2c(c1)/C(=C(\C)Nc1ccn(C)n1)C(=O)N2 [Example 18, (Z)-5-(2-Fluoro-6-methoxyphenyl)-3-(1-((1-methyl-1H-pyrazol-3-yl)amino)ethylidene)indolin-2-one]	89.8	85.4	< 50
C/C(Nc1cc(C)n(C(C)(C)C#N)n1)=C1/C(=O)Nc2cnc(-c3cnccc3C)cc21 [Example 197, (Z)-2-Methyl-2-(5-methyl-3-((1-(5-(4-Methylpyridin-3-yl)-2-oxo-1H-pyrrolo[2,3-c]pyridin-3(2H)-ylidene)ethyl)amino)-1H-pyrazol-1-yl)propanenitrile]	69.8	70.1	< 50
C/C(Nc1cc(C)n(C[C@H](C)O)n1)=C1/C(=O)Nc2cnc(-c3cnccc3C)cc21 [Example 184, (S,Z)-3-(1-((1-(2-Hydroxypropyl)-5-methyl-1H-pyrazol-3-yl)amino)ethylidene)-5-(4-methylpyridin-3-yl)-1H-pyrrolo[2,3-c]pyridin-2(3H)-one]	70.3	75.2	< 50
C/C(Nc1cn(C)nc1C)=C1/C(=O)Nc2cnc(-c3cnccc3C)cc21 [Example 135, (Z)-3-(1-((1,3-Dimethyl-1H-pyrazol-4-yl)amino)ethylidene)-5-(4-methylpyridin-3-yl)-1H-pyrrolo[2,3-c]pyridin-2(3H)-one]	78.5	83.9	50 to 100
COc1cccc(F)c1-c1cc2c(cn1)NC(=O)/C2=C(/C)Nc1ccn(CC(C)(C)O)n1 [Example 144, (Z)-5-(2-Fluoro-6-methoxyphenyl)-3-(1-((1-(2-hydroxy-2-methylpropyl)-1H-pyrazol-3-yl)amino)ethylidene)-1H-pyrrolo[2,3-c]pyridin-2(3H)-one]	80.5	84.6	< 50
CC/C(Nc1cnn(C)c1)=C1/C(=O)Nc2cnc(-c3cnccc3C)cc21 [Example 47, (Z)-3-(1-((1-Methyl-1H-pyrazol-4-yl)amino)propylidene)-5-(4-methylpyridin-3-yl)-1H-pyrrolo[2,3-c]pyridin-2(3H)-one]	83.5	82.5	< 50
COc1cccc(F)c1-c1cc2c(cn1)NC(=O)/C2=C(/C)Nc1ccc(N2CCNCC2)cc1 [Example 108, (Z)-5-(2-Fluoro-6-methoxyphenyl)-3-(1-((4-(piperazin-1-yl)phenyl)amino)ethylidene)-1H-pyrrolo[2,3-c]pyridin-2(3H)-one]	74.2	77	< 50
C/C(NCCN1CCOCC1)=C1/C(=O)Nc2cnc(-c3cnccc3C)cc21 [Example 86, (Z)-5-(4-Methylpyridin-3-yl)-3-(1-((2-morpholinoethyl)amino)ethylidene)-1H-pyrrolo[2,3-c]pyridin-2(3H)-one]	51.5	74	> 500
C/C(Nc1ccn(CC(C)(C)O)n1)=C1/C(=O)Nc2cnc(-c3cnccc3C)cc21 [Example 104, (Z)-3-(1-((1-(2-Hydroxy-2-methylpropyl)-1H-pyrazol-3-yl)amino)ethylidene)-5-(4-methylpyridin-3-yl)-1H-pyrrolo[2,3-c]pyridin-2(3H)-one]	74.6	79.8	< 50
C/C(Nc1ccn(C)n1)=C1/C(=O)Nc2cccc(-c3cnccc3C)c21 [Example 157, (Z)-3-(1-((1-Methyl-1H-pyrazol-3-yl)amino)ethylidene)-4-(4-methylpyridin-3-yl)indolin-2-one]	54.5	66.5	–

The remaining lines, values ahead:

inhibition at 1 µM [%]	inhibition at 10 µM [%]	IC50 [nM]	SMILES
66.8	75.4	< 50	CCS(=O)(=O)n1ccc(N/C(C)=C2\C(=O)Nc3cnc(-c4cnccc4C)cc32)n1 [Example 94, (Z)-3-(1-((1-(Ethylsulfonyl)-1H-pyrazol-3-yl)amino)ethylidene)-5-(4-methylpyridin-3-yl)-1H-pyrrolo[2,3-c]pyridin-2(3H)-one]
78.4	83.3	< 50	CNC(=O)C(C)(C)n1ccc(N/C(C)=C2\C(=O)Nc3cnc(-c4cnccc4C)cc32)n1 [Example 118, (Z)-N,2-dimethyl-2-(3-((1-(5-(4-methylpyridin-3-yl)-2-oxo-1H-pyrrolo[2,3-c]pyridin-3(2H)-ylidene)ethyl)amino)-1H-pyrazol-1-yl)propanamide]
78	78.2	< 50	C/C(Nc1ccc(N2CCOCC2)cc1)=C1/C(=O)Nc2cnc(-c3cnccc3C)cc21 [Example 59, (Z)-5-(4-Methylpyridin-3-yl)-3-(1-((4-morpholinophenyl)amino)ethylidene)-1H-pyrrolo[2,3-c]pyridin-2(3H)-one]
89.9	92.8	< 50	COc1cccc(F)c1-c1cc2c(cn1)NC(=O)/C2=C(/C)Nc1cnn(C2CC2)c1 [Example 30, (Z)-3-(1-((1-Cyclopropyl-1H-pyrazol-4-yl)amino)ethylidene)-5-(2-fluoro-6-methoxyphenyl)-1H-pyrrolo[2,3-c]pyridin-2(3H)-one]
65.7	73.6	< 50	C/C(Nc1cc(C)n(CC(F)F)n1)=C1/C(=O)Nc2cnc(-c3c(C)cccc3F)cc21 [Example 201, (Z)-3-(1-((1-(2,2-Difluoroethyl)-5-methyl-1H-pyrazol-3-yl)amino)ethylidene)-5-(2-fluoro-6-methylphenyl)-1H-pyrrolo[2,3-c]pyridin-2(3H)-one]
72.1	68.6	< 50	C/C(Nc1cc(C)n(C[C@@H](C)O)n1)=C1/C(=O)Nc2cnc(-c3c(C)cccc3F)cc21 [Example 216, (R,Z)-5-(2-Fluoro-6-methylphenyl)-3-(1-((1-(2-hydroxypropyl)-5-methyl-1H-pyrazol-3-yl)amino)ethylidene)-1H-pyrrolo[2,3-c]pyridin-2(3H)-one]
70.7	71.9	< 50	C/C(Nc1cc(C)n(CC(C)(C)O)n1)=C1/C(=O)Nc2cnc(-c3c(C)cccc3F)cc21 [Example 200, (Z)-5-(2-Fluoro-6-methylphenyl)-3-(1-((1-(2-hydroxy-2-methylpropyl)-5-methyl-1H-pyrazol-3-yl)amino)ethylidene)-1H-pyrrolo[2,3-c]pyridin-2(3H)-one]
87.8	85.1	< 50	CCOc1cccc(F)c1-c1cc2c(cn1)NC(=O)/C2=C(/C)Nc1ccc(N2CCNCC2)nc1 [Example 36, (Z)-5-(2-Ethoxy-6-fluorophenyl)-3-(1-((6-(piperazin-1-yl)pyridin-3-yl)amino)ethylidene)-1H-pyrrolo[2,3-c]pyridin-2(3H)-one]
91.6	87.8	< 50	COc1ccncc1-c1cc2c(cn1)NC(=O)/C2=C(/C)Nc1cnn(C)c1 [Example 33, (Z)-5-(4-methoxypyridin-3-yl)-3-(1-((1-methyl-1H-pyrazol-4-yl)amino)ethylidene)-1H-pyrrolo[2,3-c]pyridin-2(3H)-one]
79.4	83.9	< 50	C/C(Nc1ccn(C(C)(C)CO)n1)=C1/C(=O)Nc2cnc(-c3cnccc3C)cc21 [Example 145, (Z)-3-(1-((1-(1-Hydroxy-2-methylpropan-2-yl)-1H-pyrazol-3-yl)amino)ethylidene)-5-(4-methylpyridin-3-yl)-1H-pyrrolo[2,3-c]pyridin-2(3H)-one]
72.8	77	< 50	C/C(Nc1ccn(C)n1)=C1/C(=O)Nc2ccc(-c3cnccc3C)cc21 [Example 100, (Z)-3-(1-((1-Methyl-1H-pyrazol-3-yl)amino)ethylidene)-5-(4-methylpyridin-3-yl)indolin-2-one]
